# Measurements published in patent publication US6670350B1, “Method of administering dienogest in high dosages to reduce the body of the breast and pharmaceutical composition for same” (JenaPharm GmbH & Co. KG, priority 1999, dated 2003).
# Columns and labels:
# body of the breast = experiment: clinical study, sonographic examination of the breast; assay type: in vivo, patients (women)
# Procedure: In a clinical study, the reduction of the body of the breast was detected sonographically in 21 patients ranging in age from 18 to 52 years. In each case, 10 mg of dienogest were administered orally as a tablet over a period of 24 weeks at intervals of 12 hours. The daily dose therefore amounted to 20 mg of dienogest. The breast was examined sonographically before the treatment as well as after 12 and 24 weeks of continuous therapy.
# [1] = blood fat values on administration of high dosages of dienogest; assay type: in vivo
structure (smiles),measurement,setting,value
"C[C@]12CCC3=C4CCC(=O)C=C4CC[C@H]3[C@@H]1CC[C@@]2(O)CC#N [dienogest, 17-hydroxy-3-oxo-19-nor-17α-pregna-4,9-diene-21-nitrile]",body of the breast (detected sonographically),"body of the breast; 21 patients aged 18 to 52 years, 10 mg orally as tablet every 12 hours (20 mg daily) over 24 weeks, on the average, in all women",decreased significantly
same,"symptoms of mastopathic changes, such as duct ectasia","body of the breast; 21 patients, 10 mg orally every 12 hours (20 mg daily) over 24 weeks",receded completely
same,HDL cholesterol level,[1],increased
